Laboratory results from US6180629A, “[4,5]-Fused-1,3-disubstituted-1,2-diazine-6-one derivatives with nitrogen containing substitutents in position one for the treatment of neoplasia” (Cell Pathways, Inc., priority 1998, dated 2001).

Columns and labels:
[1] = test system: human colon carcinoma cell line, SW-480; assay: Growth inhibition of SW-480 human colon carcinoma cells, Sulforhodamine B (SRB) protein binding assay, six days; format: cell-based; settings: SW480, 144 h
Description: The compounds of Examples 1-3 were assayed for their growth inhibitory activity on the human colon carcinoma cell line, SW-480 obtained from ATCC (Rockville, Md.), to ascertain the degree of growth inhibition. Growth inhibition of this cell line is indicative of a benefit on precancerous lesions and neoplasms. The cell line and growth assay employed for such experiments are well characterized, and are used to evaluate the anti-neoplastic properties of NSAIDs. The assay is used by the United States National Cancer Institute in its screening program for new anti-cancer drugs.
Drug stock solutions were made in 100% DMSO and were then diluted with RPMI media for cell culture testing. All drug solutions were prepared fresh on the day of testing. The cultured cells were obtained at passage #99 and grown in RPMI media supplemented with 5% fetal calf serum, and 2 mM glutamine, 100 u/ml penicillin, 100 U/ml streptomycin, and 0.25 μg/ml amphotericin. The cultures were maintained in a humidified atmosphere of 95% air and 5% CO2 at 37° C. The cultures were passaged at preconfluent densities using a solution of 0.05% trypsin and 0.53 mM EDTA. Cells were plated at 1000 cells/well for 96 well flat-bottom microtiter plates.
Tumor cell growth inhibition was assessed using the Sulforhodamine B (SRB) protein binding assay. In this assay, tumor cells were plated in 96-well plates and treated with drug-containing media for six days (continuous exposure). For each plate, 6 wells were designated as no treatment controls, six wells as vehicle (0.1% DMSO) controls, and the remaining wells for drug dilutions with three wells per drug concentration. At the end of the exposure period, the cells were fixed and stained with sulforhodamine B, a protein binding dye. The dye was then solubilized, and the optical density of the resulting solution was determined on a 96-well plate reader. The mean dye intensity of the treated wells was then divided by the mean dye intensity in the control wells (6 wells of each) to determine the effect of the drug on the cells. Dye intensity is proportional to the number of cells or amount of protein per well. The resultant "percent inhibition" value then represents the degree of growth inhibition caused by the drug.
An IC50 value was also determined for the compound of Example 3. This value is equivalent to the concentration of drug needed to inhibit tumor cell growth by 50% relative to a vehicle control. IC50 value was obtained graphically by connecting the mean values for each drug concentration tested. Each experiment included at least three wells per drug concentration. Concentration was plotted on a log scale on the X-axis.

[2] = test system: SW-480 colon adenocarcinoma cells; assay: Apoptosis (DNA fragmentation) in SW-480 colon adenocarcinoma cells, Cell Death Detection ELISA; format: cell-based, human; settings: for fold induction at 100 µM: SW480, read-out: DNA Fragmentation FS (Fold stimulation, FS=ODmax/ODveh); for fold induction at 100 µM / EC50: SW-480, 48 hrs; for Apoptosis Level (Mean OD Value ± SD): vehicle 0.175 ± 0.02
Description: Apoptosis was measured using an assay of cell death based on a characteristic feature of apoptotic cells (i.e., fragmented DNA). Briefly, SW-480 colon adenocarcinoma cells were plated in 96-well microtitre plates ("MTP") at a density of 10K cells/well in 180 μl and were incubated for 24 hrs. Cells were then treated with 20 μl aliquots of appropriately diluted compound, and allowed to incubate for an additional 48 hrs.
After the incubation, samples were prepared according to the following steps. The MTP was centrifuged (15 min., 1000 rpm) and the supernatant was carefully removed by fast inversion of the MTP. The cell pellets in each well were resuspended in 200 μl lysis buffer and incubated for 45 min. at room temperature to lyse the cells. The lysates were then centrifuged (15 min., 1000 rpm) and 20 μl aliquots of the supernatant (=cytoplasmicfraction) were transferred into the streptavidin coated MTP for analysis. Care was taken not to shake the lysed pellets in the MTP (=cell nucleii containing high molecular weight, unfragmented DNA). Samples were analyzed immediately, because storage at 4° C. or -20° C. reduces the ELISA-signals.
Samples were then processed according to a DNA fragmentation assay protocol, and dose-response curves were generated based on optical density readings. Quantification of DNA was done by a commercially available photometric enzyme-immunoassay manufactured by Mannheim-Boehringer under the name "Cell Death Detection ELISA^plus ". The assay is based on a quantitative sandwich-enzyme-immunoassay-principle using mouse monoclonal antibodies directed against DNA and histones, respectively. This allows the specific determination of mono and oligonucleosomes in the cytoplasmatic fraction of cell lysates. In brief, the assay procedure is as follows. The sample (cell-lysate, serum, culture-supernatant etc.) is placed into a streptavidin-coated MTP. Subsequently, a mixture of anti-histone-biotin and anti-DNA-POD is followed by incubation for 2 hours. During the incubation period, the anti-histone antibody binds to the histone-component of the nucleosomes and simultaneously fixes the immunocomplex to the streptavidin-coated MTP via its biotinylation. Additionally, the anti-DNA-POD antibody reacts with the DNA component of the nucleosomes. After removal of unbound antibodies by a washing step, the amount of nucleosomes is quantified by the POD retained in the immunocomplex. POD is determined photometrically with ABTS® (2,2'-Azino-di[3-ethylbenzthiazolin-sulfonat]) as substrate.
Fold stimulation (FS=ODmax/ODveh), an indicator of apoptotic response, was determined for each compound tested.

colonic polyps = settings: patients; cited from earlier work
[3] = chronic administration, high cancer-risk patients; cited from earlier work

**Q.** With `O=C(Cn1nc(-c2ccccc2)c2ccccc2c1=O)NCc1ccccc1` [Example 1, 2-(1-Oxo-4-Phenylphthalazin-2-yl)-N-Benzylethanamide] as the compound, how does the inhibition at 100 µM ([1]; six days continuous exposure) read?
**A.** Its inhibition at 100 µM is 90%.

**Q.** And the fold induction at 100 µM ([2]; Homo sapiens)?
**A.** Its fold induction at 100 µM is 7.3.

**Q.** Which inhibition at 100 µM ([1]; six days continuous exposure) does the source give for `O=C(Cn1nc(-c2ccc(F)cc2)c2ccccc2c1=O)NCc1ccccc1` [Example 2] here?
**A.** Its inhibition at 100 µM is -7.8%.

**Q.** And the fold induction at 100 µM ([2]; Homo sapiens)?
**A.** The fold induction at 100 µM was 1.2.

**Q.** For `O=C(Cn1nc(-c2ccc(Cl)cc2)c2ccccc2c1=O)NCc1ccccc1` [Example 3, 2-[4-(4-Chlorophenyl)-1-Oxo-Phthalazin-2-yl]-N-Benzylethanamide], which inhibition at 100 µM ([1]; six days continuous exposure) is on record?
**A.** The inhibition at 100 µM was 86.1%.

**Q.** And the activity at 0.001 µM ([1]; Dose 0.001 μM, read-out: Growth Inhibition (% Vehicle ± SD))?
**A.** The activity at 0.001 µM was 105 ± 20%.

**Q.** And the activity at 0.01 µM ([1]; Dose 0.01 μM, read-out: Growth Inhibition (% Vehicle ± SD))?
**A.** Its activity at 0.01 µM is 99 ± 11.9%.

**Q.** What about the activity at 0.1 µM ([1]; Dose 0.1 μM, read-out: Growth Inhibition (% Vehicle ± SD)) of the same compound?
**A.** The activity at 0.1 µM was 91 ± 5%.

**Q.** And the activity at 1 µM ([1]; Dose 1.0 μM, read-out: Growth Inhibition (% Vehicle ± SD))?
**A.** Its activity at 1 µM is 94 ± 17.9%.

**Q.** And the activity at 10 µM ([1]; Dose 10.0 μM, read-out: Growth Inhibition (% Vehicle ± SD))?
**A.** Its activity at 10 µM is 34 ± 17.8%.

**Q.** What about the activity at 100 µM ([1]; Dose 100.0 μM, read-out: Growth Inhibition (% Vehicle ± SD)) of the same compound?
**A.** The activity at 100 µM was 6 ± 1.6%.

**Q.** And the IC50 ([1]; six days continuous exposure, read-out: IC50 (tumor cell growth, relative to vehicle control))?
**A.** The IC50 was 5.18 µM.

**Q.** And the “Apoptosis Level (Mean OD Value ± SD)” value ([2]; Dose 0.001 μM)?
**A.** The value was 0.156 ± 0.02 OD.

**Q.** What about the “Apoptosis Level (Mean OD Value ± SD)” value ([2]; Dose 0.01 μM) of the same compound?
**A.** The value was 0.165 ± 0.03 OD.

**Q.** What about the “Apoptosis Level (Mean OD Value ± SD)” value ([2]; Dose 0.1 μM) of the same compound?
**A.** Its value is 0.161 ± 0.02 OD.

**Q.** What about the “Apoptosis Level (Mean OD Value ± SD)” value ([2]; Dose 1.0 μM) of the same compound?
**A.** The value was 0.208 ± 0.01 OD.

**Q.** And the “Apoptosis Level (Mean OD Value ± SD)” value ([2]; Dose 10.0 μM)?
**A.** The value was 1.789 ± 0.32 OD.

**Q.** What about the “Apoptosis Level (Mean OD Value ± SD)” value ([2]; Dose 100.0 μM) of the same compound?
**A.** Its value is 2.763 ± 0.29 OD.

**Q.** What about the EC50 ([2]; Homo sapiens, SW480, 48 h) of the same compound?
**A.** The EC50 was 7.2 µM.

**Q.** What about the fold induction at 100 µM ([2]; Homo sapiens) of the same compound?
**A.** The fold induction at 100 µM was 6.1.

**Q.** What about the EC50 [2] of the same compound?
**A.** The EC50 was 7.19 µM.

**Q.** Which “effect on colonic polyps” value (colonic polyps) does the source give for `CC1=C(CC(=O)O)c2cc(F)ccc2/C1=C\c1ccc([S+](C)[O-])cc1` (centres unmarked) [sulindac] here?
**A.** Its value is “Polyps virtually disappear”.

**Q.** And the gastric side effects [3]?
**A.** Its gastric side effects is “causes gastric side effects in many such patients”.
